{"source": "patent US20060234276A1", "about": "“Methods of treatment of type 2 diabetes” (priority 1998, published 2006)", "key": {"mouse islets [1]": {"system": "mouse islets", "experiment": "Measurement of islet [Ca2+]i (Fura-2)", "type": "cell-based", "procedure": "Measurement of islet [Ca^2+]i, and NAD(P)H. Islet [Ca^2+]i and NAD(P)H were measured as previously described (Pontoglio et al., 1998; Dukes et al., 1998).\nInsulin secretory responses to glucose and most other secretagogues is mediated by a rise in intracellular free calcium ([Ca^2+]i). We therefore measured [Ca^2+]i responses to glucose, KIC and KCl using Fura-2 as the Ca^2+ indicator. In comparison to the responses from the control islets, the most prominent abnormality in [Ca^2+]i responses to glucose and KIC was a delay of the [Ca^2+]i responses (FIG. 21). The mean time interval between administration of 14 mM glucose and the point of half maximal response (T1/2.) was 120±14 seconds in control islets. […] There was no delay in the appearance of [Ca^2+]i response to KCl, nor was the magnitude of the response reduced."}, "mouse pancreatic islets": {"system": "mouse pancreatic islets", "experiment": "Static incubation of isolated pancreatic islets, insulin secretion", "type": "cell-based", "procedure": "Static incubation of isolated pancreatic islets. Isolation of mouse pancreatic islets was accomplished using collagenase digestion as previously described (Pontoglio et al., 1998). […] Triplicate groups of 5 islets were then incubated in borosilicate tubes containing 1 ml of KRB with the same concentration of inhibitor and various insulin secretagogues for one hour in a moving water bath at 37° C. The reaction was stopped by placing the tubes on ice and an aliquot of the buffer was removed for measurement of insulin levels. Control studies, in which the incubation mixture contained vehicle (0.1% DMSO) only, were performed using aliquots of the same batch of islets\nAssay methods. Insulin concentrations were measured by a double antibody radioimmunoassay using a rat insulin standard. The intra-assay coefficient of variation for this technique is 7%. All samples were assayed in duplicate."}, "soleus muscle strips": {"system": "soleus muscle strips", "experiment": "Glycogen synthesis rates in skeletal muscle", "type": "cell-based, rat", "conditions": "100 μM ALLM or 200 μM E-64-d", "from_the_text": "Glycogen synthesis rates in skeletal muscle."}, "mouse islets [2]": {"system": "mouse islets", "experiment": "Glucose utilization and oxidation rates in islets", "type": "cell-based", "procedure": "Glucose utilization and oxidation rates. Glucose utilization and oxidation rates were measured as previously described (Dukes et al., 1998; Zhou et al., 1996) in mouse islets cultured as described above in the presence or absence of calpain inhibitors."}, "calpain": {"system": "calpain", "experiment": "Calpain activity in mouse pancreatic islets (Boc-Leu-Met-CMAC cleavage)", "type": "cell-based"}, "β-cells": {"system": "β-cells", "experiment": "Whole-cell patch-clamp calcium currents in β-cells", "type": "cell-based, mouse", "procedure": "Isolation of pancreatic β-cells. Single β-cells were obtained from isolated islets dispersed by gentle trituration (120 strokes through a 200 μl pipette tip) in Ca^2+ and Mg^2+-free PBS containing […]. Cells were plated on glass coverslips and maintained in culture in RPMI containing 11.6 mM glucose for 48-96 hr.\nPatch-clamp electrophysiology. Calcium current measurements were obtained in the whole-cell patch-clamp configuration. Calcium currents were activated by step depolarizations to either +10 or +20 mV for either 20 ms or 100 ms, from HP=−80 mV. All current records are corrected for leak and capacitance. The data was filtered at 2 kHz and then sampled every 100 μs. Pipette resistances were 1.5-2.5 MΩ. Series resistance was partially compensated (˜80%) using the compensation circuit of the Axopatch-1C amplifier.\nCells were incubated for 3-4 hr in RPMI at 37° C. in either 0.1% DMSO (control) or 100 μM ALLM and then transferred for a further 1-2 hr to KRB containing similar concentrations of DMSO or ALLM. For recording, cells were bathed in a solution containing (in mM): 145 NaCl, 2 KCl, 1 MgCl2, 2 glucose, 10 HEPES, 10 CaCl2, pH 7.3 (adjusted with NaOH) and either DMSO or ALLM. […]"}}, "note": "Peptide text beside a SMILES is read from it."}
{"smiles": "CSCC[C@@H](C=O)NC(=O)[C@H](CC(C)C)NC(=O)[C@H](CC(C)C)NC(C)=O", "note": "[ALLM, N-Ac-Leu-Leu-methioninal] (Ac-Leu-Leu-Met-aldehyde)", "values": [{"measurement": "[Ca2+]i response to high glucose", "setting": "mouse islets [1]; 4 hr preincubation, 14 mM glucose", "value": "not associated with increases in [Ca^2+]i"}, {"measurement": "[Ca2+]i response to glucose ramp (2 to 26 mM over 48 mins)", "setting": "mouse islets [1]; 48 h treated islets", "value": "diminished"}, {"measurement": "[Ca2+]i responses to 30 mM KCl vs control", "setting": "mouse islets [1]; 48 h treated islets", "value": "not different"}, {"measurement": "integrated [Ca2+]i responses (area under the curves) to glucose and KIC vs control", "setting": "mouse islets [1]; 48 h treated islets", "value": "significantly smaller"}, {"measurement": "T1/2 of [Ca2+]i response to 14 mM glucose (time to half maximal response)", "setting": "mouse islets [1]; 48 h treated islets, control 120±14 seconds", "value": "5.32 ± 0.7", "unit": "min"}, {"measurement": "T1/2 of [Ca2+]i response to KIC", "setting": "mouse islets [1]; 48 h treated islets, control 125±9", "value": "4.18 ± 0.7", "unit": "min"}, {"measurement": "insulin secretory response to 30 mM KCl", "setting": "mouse pancreatic islets; 100 μM ALLM, 4 hr, 2 mM glucose", "value": "did not however significantly increase"}, {"measurement": "insulin secretory response to 100 μM carbachol (CCh)", "setting": "mouse pancreatic islets; 100 μM ALLM, 4 hr, 8 mM glucose", "value": "did not however significantly increase"}, {"measurement": "increase of insulin secretory response to 50 nM GLP-1", "setting": "mouse pancreatic islets; 100 μM ALLM, 8 mM glucose", "value": "1.55±0.2", "unit": "fold"}, {"measurement": "insulin secretory response to 20 mM glucose after recovery", "setting": "mouse pancreatic islets; 48-h treatment, then 2 days recovery without inhibitor", "value": "essentially normal insulin secretory response"}, {"measurement": "effect on insulin secretion at 2 mM glucose", "setting": "mouse pancreatic islets; 4 hr exposure, ALLM 250 μM, E-64-d 200 μM, 2 mM glucose", "value": "not observed"}, {"measurement": "increase of insulin secretory response to 20 mM glucose", "setting": "mouse pancreatic islets; 4 hr exposure, ALLM 250 μM, E-64-d 200 μM, 20 mM glucose, mean±SEM", "value": "1.97±0.3", "unit": "fold"}, {"measurement": "inhibition of 20 mM glucose-stimulated insulin secretion", "setting": "mouse pancreatic islets; 48 h, 100 μM ALLM (so in the source), 50 μM MDL28170", "value": "88±9", "unit": "%"}, {"measurement": "basal insulin secretion (2 mM glucose) vs control-treated islets", "setting": "mouse pancreatic islets; 48 hours exposure", "value": "no significant difference"}, {"measurement": "insulin secretory response to carbachol", "setting": "mouse pancreatic islets; 48 h treated islets", "value": "attenuated"}, {"measurement": "insulin secretory response to glyceraldehyde", "setting": "mouse pancreatic islets; 48 h treated islets", "value": "responded normally"}, {"measurement": "insulin secretory response to mastoparan", "setting": "mouse pancreatic islets; 48 h treated islets", "value": "attenuated"}, {"measurement": "insulin-secretory response to keto-isocaproic acid (KIC)", "setting": "mouse pancreatic islets; 48 h treated islets", "value": "decreased"}, {"measurement": "insulin secretory responses to glucose (summary statement of Example 8)", "setting": "mouse pancreatic islets; isolated mouse islets, introductory summary, no conditions given", "value": "reduces insulin secretory responses"}, {"measurement": "concentration at which inhibition of insulin secretion was achieved (dose response)", "setting": "mouse pancreatic islets; long-term exposure, glucose stimulated insulin secretion", "value": 25, "unit": "µM"}, {"measurement": "magnitude of insulin-induced increase in muscle glycogen synthesis", "setting": "soleus muscle strips; insulin 6 nM", "value": "0.13±0.03", "unit": "nmol glucose/mg/hr"}, {"measurement": "rate of muscle glycogen synthesis with insulin", "setting": "soleus muscle strips; insulin 6 nM", "value": "0.40±0.05", "unit": "nmol glucose/mg/hr"}, {"measurement": "rate of muscle glycogen synthesis without insulin", "setting": "soleus muscle strips; no insulin", "value": "0.27±0.03", "unit": "nmol glucose/mg/hr"}, {"measurement": "rate of glucose utilization at basal glucose", "setting": "mouse islets [2]; 2 mM glucose, 100 μM ALLM or 200 μM E-64-d, 4 h", "value": "14.5±3.6", "unit": "pmol/islet/hr"}, {"measurement": "rate of glucose utilization at stimulatory glucose", "setting": "mouse islets [2]; 20 mM glucose, 100 μM ALLM or 200 μM E-64-d, 4 h", "value": "89.5±3.0", "unit": "pmol/islet/hr"}, {"measurement": "rate of basal glucose utilization and oxidation at 3.3 mM glucose", "setting": "mouse islets [2]; 48 h treated islets", "value": "no significant changes"}, {"measurement": "rates of glycolysis and glucose oxidation at stimulating concentrations of glucose", "setting": "mouse islets [2]; 48 h treated islets vs controls", "value": "significantly reduced"}, {"measurement": "glucose oxidation rate at basal glucose", "setting": "mouse islets [2]; basal glucose, ALLM or E-64-d, 4 h", "value": "6.0±0.7", "unit": "pmol/islet/hr"}, {"measurement": "glucose oxidation rate at stimulatory glucose", "setting": "mouse islets [2]; stimulatory glucose, ALLM or E-64-d, 4 h", "value": "39.5±4.1", "unit": "pmol/islet/hr"}, {"measurement": "area under the curve of rate of generation of fluorescent calpain product", "setting": "calpain; 200 μM inhibitor, 4 hr incubation", "value": "35±4 % of control values"}, {"measurement": "residual calpain activity in intact islets", "setting": "calpain; 48 h treatment, 100 μM ALLM or 200 μM E-64-d", "value": "54±3 % of control treated islets"}, {"measurement": "average peak calcium current density", "setting": "β-cells; ALLM 100 μM pre-treated cells, n=15", "value": "36.7±3.9", "unit": "pA/pF"}, {"measurement": "whole-cell calcium currents", "setting": "β-cells; ALLM 100 μM pre-treated vs control cells", "value": "similar"}]}
